These results are taken from PubChem BioAssay AID1845208 (Molecular Pharmacology Branch, DTP, NCI, 2023).

Values joined by “and” are separate entries in the source; they are usually repeats but may differ in a detail not shown here. Equal entries are not always repeated. Active and inactive are the calls of the source. The calls were made as follows: active = viability on the fitted dose curve at most 10% of control; inactive = the rest.

This experiment concerns NCI-H196 SCLC complex tumor spheroid viability. Put plainly: Anticancer human tumor NCI-H196 cell line growth inhibition.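 As to IC50: spheroids exposed to compounds for 7 days before readout.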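 As to viability, T/C: spheroids exposed to compounds for 7 days before readout; 100% = DMSO vehicle control wells.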 The settings on record: for viability, T/C: stronger effect = lower value. An excerpt: Multicellular complex tumor spheroid response to DNA repair inhibitors in combination with DNA-damaging drugs
This study explores the anticancer activities of DNA-damaging drugs and inhibitors of DNA damage repair, both as single agents and in combinations. Complex tumor spheroids comprised of malignant cells, endothelial cells and mesenchymal stem cells served as an in vitro model for human solid tumors. This model system incorporates physiologically relevant features and patient-derived or established malignant cell lines with clinically relevant genetic alterations from many tumor types. Twenty-six patient-derived or established malignant cell lines were evaluated representing sarcoma, melanoma, small cell lung cancer (SCLC), non-small cell lung cancer (NSCLC), as well as bladder, ovarian and pancreatic cancers. The concentration ranges selected for each drug and investigational agent were based upon clinically achievable concentrations if the clinical Cmax of the agent was known.
Compounds. The drugs and compounds olaparib (NSC753686), talazoparib (NSC767125), berzosertib (NSC777718), elimusertib (NSC800525), nedisertib (NSC802822), VX-984 (NSC792969), AZD-1390 (NSC803789), temozolomide (NSC362856), topotecan (NSC609699), trabectedin (NSC813783), staurosporine (NSC755774), and gemcitabine (NSC613327) were obtained from the National Cancer Institute (NCI) Developmental Therapeutics Program Chemical Repository. The FDA-approved anticancer drug set is available from the Developmental Therapeutics Program at https://dtp.cancer.gov/organization/dscb/obtaining/available_plates.htm. […] The stock solutions were prepared in dimethyl sulfoxide (DMSO, Sigma-Aldrich, St. Louis, MO, cat. D2650) at 400-fold the tested concentration and stored at -70 degrees C. Prior to their use, the stock solutions were diluted in fresh medium and the final DMSO concentration in the assay was 0.25% (v/v). All drugs and investigational agents were tested over a range starting from a high concentration at or near the clinical Cmax and decreasing in half-log increments. If the clinical Cmax for an agent had not been determined, the highest concentration tested was 10 microM.
Cell Lines. The patient-derived cancer cell (PDC) lines: 156681-154-R-J1-PDC, 283228-195-R-J1-PDC, 287954-098-R-J1-PDC, 292921-168-R-J2-PDC, 349418-098-R-PDC, 425362-245-T-J1-PDC, 556581-035-R-J1-PDC, and BL0293-F563-PDC were received from the NCI Patient-Derived Models Repository (PDMR, https://pdmr.cancer.gov). The established cell lines HS-SY-2 (RRID:CVCL_8719), MPNST, and SYO-1 (RRID:CVCL_7146) were obtained from the Sloan Kettering Institute. The alveolar soft parts sarcoma cell line ASPS-1 (RRID:CVCL_S738) was established at the NCI and grown from internal seed stocks. The following established cell lines were purchased from the American Type Culture Collection (ATCC, Manassas, VA): G-401 (ATCC, cat. CRL-1441, RRID:CVCL_0270), SW982 (ATCC, cat. HTB-93, RRID:CVCL_1734), VA-ES-BJ (ATCC, cat. CRL-2138, RRID:CVCL_1785), NCI-H719 (ATCC, cat. CRL-5837, RRID:CVCL_1582), NCI-H196 (ATCC, cat. CRL-5823, RRID:CVCL_1509), NCI-H841 (ATCC, cat. CRL-5845, RRID:CVCL_1595), NCI-H1618 (ATCC, cat. CRL-5879, RRID:CVCL_1480), NCI-H1876 (ATCC, cat. CRL-5902, RRID:CVCL_1503), DMS 114 (ATCC, cat. CRL-2066; RRID:CVCL_1174), NCI-H211 (ATCC, cat. CRL-5824; RRID:CVCL_1529), and SW 1271 (ATCC, cat. CRL-2177, RRID:CVCL_1716). The small cell lung cancer cell line COR-L88 was purchased from Sigma-Aldrich (cat. 92031917-1VL, RRID:CVCL_1141). The non-small cell lung cancer cell lines NCI-H226 (RRID:CVCL_1544) and NCI-H322M (RRID:CVCL_1557) were established at the NCI and grown from internal seed stocks. Pooled donor human umbilical vein endothelial cells (HUVEC, Lonza, cat. CC-2519) and human mesenchymal stem cells (hMSC, Lonza, cat. PT-2501) were purchased from Lonza (Walkersville, MD).
Cell Culture. All cells were maintained in an incubator at 37 degrees C and 5% CO2 with 95% humidity. […]

Where [1] appears, read: compound alone, run of 11/07/2019.
The mark [2] stands for this setting: compound alone, run of 12/16/2019.

In the case of `CC(C)n1c(=O)n(C)c2cnc3cc(F)c(-c4ccc(OCCCN5CCCCC5)nc4)cc3c21`, the viability, T/C (compound 0.0316 µM) is 102% (2×) and 93.8%; the viability, T/C (compound 0.1 µM) is 106% and 97.1% and 100%; the viability, T/C (compound 0.316 µM) is 105% and 95.7% and 95.9%; the viability, T/C (compound 1 µM) is 108% and 102% and 105%; the viability, T/C (compound 3.16 µM) is 113% and 112% and 110%; the viability, T/C (compound 10 µM) is 108% and 110% and 111%. In addition, the IC50 (curve of compound) is greater than 10 µM.

As to `CC1COCCN1c1cc(-c2ccnn2C)c2ccnc(-c3ccn[nH]3)c2n1` (centres undefined), the viability, T/C by setting is: (compound 0.0316 µM) 85.4% and 90.9% and 88.6%; (compound 0.1 µM) 76.7% and 72.3% and 79.4%; (compound 0.316 µM) 65.1% and 66% and 67.1%; (compound 1 µM) 60.3% and 53.1% and 61.3%; (compound 3.16 µM) 53% (2×) and 49.1%; (compound 10 µM) 44.3% and 46.2% and 48.6%. Besides, the IC50 (curve of compound) is 4.36 µM and 2.77 µM and 7.31 µM.

For the compound `CC[C@@]1(O)C(=O)OCc2c1cc1n(c2=O)Cc2cc3c(CN(C)C)c(O)ccc3nc2-1`, the viability, T/C reads like this: (compound 0.003 µM) 101% [middle of 10 runs]; (compound 0.00949 µM) 99.5% [middle of 10 runs]; (compound 0.03 µM) 95.5% [middle of 10 runs]; (compound 0.0949 µM) 102% [middle of 10 runs]; (compound 0.3 µM) 105% [middle of 10 runs]. Moreover, the half-inhibitory concentration (IC50) is greater than 0.3 µM under setting [1] and greater than 0.3 µM under setting [2].

Turning to `CNCc1ccc(-c2cc(-c3nc(-c4ccc(S(=O)(=O)C(C)C)cc4)cnc3N)on2)cc1`, the viability, T/C (compound 0.00949 µM) is 101% and 97.8% and 106%; the viability, T/C (compound 0.03 µM) was 108% and 111% and 109%; the viability, T/C (compound 0.0949 µM) was 98% and 119% and 105%; the viability, T/C (compound 0.3 µM) was 106% and 107% and 101%; the viability, T/C (compound 0.949 µM) was 95% and 98.1% and 96.3%; the viability, T/C (compound 3 µM) is 88.5% and 83.7% and 94%. In addition, the IC50 (curve of compound) is greater than 3 µM.

`COc1cc(C)[nH]c(=O)c1CN1CCc2c(Cl)cc(C(OC)C3COC3)c(Cl)c2C1=O` (centres undefined): the viability, T/C was 93.9% and 96.1% and 106% (compound 0.0316 µM); 101% (2×) and 102% (compound 0.1 µM); 92.7% and 96% and 91.1% (compound 0.316 µM); 101% and 94.2% and 103% (compound 1 µM); 97.1% and 89.7% and 101% (compound 3.16 µM); 94.5% and 97.7% and 100% (compound 10 µM). Moreover, the IC50 (curve of compound) was greater than 10 µM.

Take `COc1cc2c(cc1O)CCNC21CSC2c3c(OC(C)=O)c(C)c4c(c3C(COC1=O)N1C(O)C3Cc5cc(C)c(OC)c(O)c5C(C21)N3C)OCO4` (centres undefined): the viability, T/C was 103% [middle of 10 runs] (compound 30 pM); 105% [middle of 10 runs] (compound 94.9 pM); 103% [middle of 10 runs] (compound 0.0003 µM); 84.7% [middle of 10 runs] (compound 0.000949 µM); 7.79% [middle of 10 runs] (compound 0.003 µM). Moreover, the IC50 under setting [2] is 1.62 nM [middle of 8 runs].

Regarding `COc1ccc([C@@H](O)c2cc(-c3ncnc4cc(N5CCOCC5)ccc34)c(F)cc2Cl)nn1`, the viability, T/C was 96.5% and 98.3% and 102% (compound 0.0316 µM); 101% and 94.9% and 98.9% (compound 0.1 µM); 89.8% and 87.1% and 95.5% (compound 0.316 µM); 78.1% and 80.4% (compound 1 µM); 65% and 69% and 75.8% (compound 3.16 µM); 49.7% and 56.2% and 59.8% (compound 10 µM). In addition, the result (compound 1 µM) was inactive. The IC50 (curve of compound) was greater than 10 µM.

`Cc1cc(C)c(CNC(=O)c2cc(-c3ccc(CN4CCOCC4)cc3)cc3c2cnn3C2CCCC2)c(=O)[nH]1`: the viability, T/C by setting is: (compound 0.0316 µM) 104% and 97.2% and 99.1%; (compound 0.1 µM) 96.1% and 97.9% and 103%; (compound 0.316 µM) 93.3% and 97% and 102%; (compound 1 µM) 91.3% and 96.2% and 98.9%; (compound 3.16 µM) 101% and 94% and 103%; (compound 10 µM) 106% and 103% and 111%. The IC50 (curve of compound) was greater than 10 µM.

Regarding `Cc1sc2c(c1C)C(c1ccc(Cl)cc1)=NC(CC(=O)Nc1ccc(O)cc1)c1nnc(C)n1-2` (centres undefined), the viability, T/C by setting is: (compound 0.00949 µM) 102% and 106% and 98%; (compound 0.03 µM) 101% and 108% and 93.3%; (compound 0.0949 µM) 91.3% and 94.5% and 91.4%; (compound 0.3 µM) 85.1% and 78% and 76.3%; (compound 0.949 µM) 41.5% and 43.1% and 38.3%; (compound 3 µM) 23% and 23.8% and 20.7%. Also, the IC50 (curve of compound) was 0.763 µM and 0.77 µM and 0.666 µM.

For the compound `Cn1ncnc1[C@H]1c2n[nH]c(=O)c3cc(F)cc(c23)N[C@@H]1c1ccc(F)cc1`, the viability, T/C reads like this: (compound 0.00949 µM) 108% and 104% and 101%; (compound 0.03 µM) 102% and 96.7% and 99%; (compound 0.0949 µM) 103% and 98.2% and 102%; (compound 0.3 µM) 102% and 98.1% and 100%; (compound 0.949 µM) 104% and 96.5% and 89.3%; (compound 3 µM) 108% and 92% and 87.2%. For the same compound, the IC50 (curve of compound) was greater than 3 µM.

For `Cn1nnc2c(C(N)=O)ncn2c1=O`, the viability, T/C was 95.3% [middle of 10 runs] (compound 1 µM), 101% [middle of 10 runs] (compound 3.16 µM), 104% [middle of 10 runs] (compound 10 µM) and 107% [middle of 10 runs] (compound 31.6 µM). Further, the IC50 under setting [1] was greater than 100 µM.

As for `O=C(c1cc(Cc2n[nH]c(=O)c3ccccc23)ccc1F)N1CCN(C(=O)C2CC2)CC1`, the viability, T/C (compound 0.0949 µM) is 99.6% and 102% and 108%; the viability, T/C (compound 0.3 µM) was 100% and 93.2% and 96%; the viability, T/C (compound 0.949 µM) is 90.1% and 99.8% and 99.6%; the viability, T/C (compound 3 µM) is 98.9% and 93.9% and 98.2%; the viability, T/C (compound 9.49 µM) is 92.9% and 89.8% and 95.1%; the viability, T/C (compound 30 µM) is 85.1% (2×) and 69.1%. In addition, the IC50 (curve of compound) was greater than 30 µM.

Consider `[2H]c1nc(C)nc([2H])c1-c1cc(NC[C@@H](C)c2cccc3c(C(=O)NC)ccnc23)ncn1`, for which the viability, T/C by setting is: (compound 0.0316 µM) 104% and 105% and 99.6%; (compound 0.1 µM) 102% and 99.5% and 104%; (compound 0.316 µM) 98.1% and 106% and 96.8%; (compound 1 µM) 99.2% and 106% and 97.2%; (compound 3.16 µM) 103% and 99.3% and 102%; (compound 10 µM) 103% and 107% and 104%. The IC50 (curve of compound) was greater than 10 µM.

One may read the viability, T/C as the ratio of treated to control. As a reminder, the IC50 is the midpoint of a concentration-inhibition curve.
